Experiments:
MIA PaCa-2 cells [1] = test: Seahorse XF Real-Time ATP Rate Assay (FIG. 8A); format: cell-based; conditions: 6 h romidepsin then 12 h washout with or without 2 nM DMPatA
Method: FIG. 8A compares quantification of ATP production rates. Seahorse XF Real-Time ATP Rate Assay was performed under control conditions or after treatment with the combination and single agents. Treatment was for a total of 18 h (i.e., 6-hour romidepsin followed by 12-hour washout with 2 nM DMPatA (combo) or without (Romi alone)). FIG. 8A left panel—ATP production rate from mitochondrial respiration (Mito-ATP); FIG. 8A right panel—ATP production rate from glycolysis (Glyco-ATP). At least two biological replicate experiments with n=3 technical replicates were performed. Statistical significance was determined by one-way ANOVA using Tukey multiple comparison's test in the Prism software. *p value<0.01.
Because reprograming/augmentation of cellular metabolism by c-MYC is known to support oncogenesis, the Seahorse XF analyzer was used to assess the impact of the treatments on c-MYC-driven metabolism including ATP production, glycolysis, and mitochondrial oxidative phosphorylation (OXPHOS). Extracellular acidification rates, also known as proton efflux rate (PER), were measured for glycolysis and mitochondrial oxygen consumption rates (OCR) for OXPHOS. […]
Oxygen consumption rates (OCR) and extracellular acidification rates (ECAR) were measured using the XF96 Extracellular Flux analyzer (Seahorse Bioscience). […]

H3K9ac = test: Immunohistochemistry of H3K9ac in MIA PaCa-2 xenograft tumor tissue (FIG. 2C); format: in vivo, athymic nude mice; conditions: IHC, tumors at end of study
From the text: FIGS. 2A and 2B illustrate the results of a MIA PaCa-2 xenograft model of PDAC in male athymic nude mice. FIG. 2A compares tumor growth (mm^3) in mice treated with the indicated concentrations of combination, romidepsin and DMPatA using IP route and vehicles described in the materials and methods section below. FIG. 2B compares body weight (g) of mice treated with the combination and single agents following treatment. FIGS. 2C and 2D compare quantification of H3K9ac and c-MYC antibodies. Frozen sections from MIA PaCa-2 xenograft tumor tissues were subjected to immunohistochemical analysis using antibodies against H3K9ac, and c-MYC. Fluorescence images were captured using fluorescent microscopy and the fluorescent signal from H3K9ac and c-MYC antibodies were quantified. To quantify fluorescence intensity at least 500 cells per condition were measured for each antibody at 40× magnification. The median of the signal intensity is shown. Statistical significance was determined by one-way ANOVA using Tukey multiple comparisons test, ****p value<0.0001.
Additionally, snap-frozen tumor tissue samples from the mice treated with vehicle, single agents, and the combination were collected at the end of the study. These samples were sectioned, and the levels of H3K9ac and c-MYC proteins in tumor tissues were assessed by immunohistochemistry. […]

MIA PaCa-2 cells [2] = test: Cellular acetyl-CoA levels by LC-MS (FIG. 8D); format: cell-based; conditions: MIA PaCa-2, total 18 h
Method: FIG. 8D compares cellular acetyl-CoA levels measured in MIA PaCa-2 cells using LC-MS following treatment of cells with the combination or with single agents as mentioned in FIG. 8A. At least three biological replicate experiments were carried out. Statistical significance was determined by two-way ANOVA, ****p value<0.0001, ***p value<0.0004.
Five million cells were seeded in 150 mm cell culture dishes. Cells were treated with combination or single agents for a total of 18 h (6-+12-hours). Following treatment cells were harvested on ice, washed, and scraped out under liquid nitrogen. Prior to extraction an aliquot of the cell pellet was collected and subjected to protein quantification.
For Acetyl-CoA extraction, a 100 μL aliquot of the thawed pellet was spiked with ^13C2-acetyl-CoA as an internal standard, extracted with 400 μL of methanol, vortexed, and centrifuged at […] for 5 minutes at 4 °C. The methanol supernatant (400 μL) was then dried under nitrogen at 35 °C and reconstituted in 100 μL of 10 mM ammonium bicarbonate (pH 9.5) for LC/MS analysis. Calibration curve standards were similarly prepared as the cell pellets. Acetyl-CoA quantification by LC/MS was performed on an Agilent 1290 Infinity UHPLC/6495 triple quadrupole mass spectrometer, using multiple reaction monitoring. […]

cells = conditions: 50 nM, 6-hour exposure; cited from earlier work

## C/C=C1\NC(=O)[C@H]2CSSCC/C=C/[C@H](CC(=O)N[C@H](C(C)C)C(=O)N2)OC(=O)[C@H](C(C)C)NC1=O [romidepsin]
MIA PaCa-2 cells [1]
  glycolytic ATP production (Glyco-ATP): reduced
  mitochondrial ATP production (Mito-ATP): reduced
H3K9ac
  H3K9ac level in tumor: increased significantly
MIA PaCa-2 cells [2]
  cellular acetyl-CoA levels: significant reduction
cells
  susceptibility of cells to romidepsin: Only a subset of cells susceptible
